Data published in patent US6506339B1, “Method of sterilization” (Biomedical Design, Inc., priority 1997, dated 2003).
“And” between values parts separate entries of the source, which are not always exact repeats. Equal entries are not always repeated.

What was measured:
[1] = test system: Bacillus Subtilis spores; test: Sterilization test, Bacillus subtilis spores in cups with or without fixed heart valves, 40° C. (Example 2); assay type: cell-based; set-up: key: (+) Indicates growth; (−) indicates no growth or complete kill; details: 20 mM EDC+1 mM Sulfo-NHS, 20% isopropyl alcohol
Procedure: Porcine aortic roots are fixed by cross-linking according to the method described in U.S. Pat. No. 5,447,536. After fixation, the valves are stored in 10 mM HEPES, 0.85% NaCl, 20% isopropyl alcohol, pH 7.4, at 4° C. The sterility tests described in the following examples are in most cases conducted in the presence of bioprosthetic heart valve tissue; when such tissue is not present, the solutions are simply filtered through a 0.45 micron filter attached to a funnel (filter funnel). The filters are then rinsed with peptone water to eliminate residual chemicals on the membrane that may prevent growth of the organisms tested. Such membrane filters are then incubated on TSA plates at about 32° to 33° C., e.g. 32.5° C. When an aortic valve is inoculated with microorganisms for test purposes and then submitted to sterilization, the solution is filtered as described above. The aortic valve tissue is then washed for 20 minutes in a reciprocating shaker in the presence of peptone water containing Tween 80 in order to extract all indigenous spores or microorganisms from the tissue. This solution is filtered and then incubated as described above. All microbiological testing is performed in a biological laminar flow hood to prevent contamination. The shrinkage temperature and the proteolytic (collagenase and protease) degradation tests are conducted as previously described in the '536 patent. Resistance to calcification is assessed by subdermal implantation of sterilized leaflets and aortic wall coupons in young rats, as also described in the '536 U.S. patent.
A sterilization process similar to Example 1 is carried out using Bacillus Subtilis spores (˜10^6) inoculated in sterile cups some of which contain cross-linked heart valves that had been fixed by a process according to U.S. Pat. No. 5,447,536. A 10 mM HEPES, 0.85% NaCl, pH 6.5 solution containing 20 mM EDC and 1 mM Sulfo-NHS in the presence of 20% isopropyl alcohol was added for various periods of time (treatment duration). The cups and the heart valves were maintained at 40° C. for the term of the treatment. The solutions were then filtered and the filters incubated for up to 7 days (incubation duration) at about 32-33° C. using Trypticase Soy Agar (TSA) plates. All inoculations were done in duplicate.

[2] = test system: spores of Bacillus subtilis; test: Effect of EDC concentration, temperature and duration on spores on cross-linked tissue (Example 4); assay type: cell-based; details: 20% IPA
Procedure: The following experiment was designed to test the effect of EDC concentration, of temperature and of duration of incubation on the inactivation of spores of Bacillus subtilis. The EDC concentrations tested were 5, 12.5 and 20 mM; the temperatures were 25, 32.5 and 40° C. for 4, 24 and 44 hours of incubation. […] Spores of Bacillus subtilis (about 2.5×10^5 per sample) were inoculated on tissue that had been cross-linked using the fixation method described in the '536 patent. The spores were allowed to contact the tissue for 10 minutes, after which time 50 ml of a solution of EDC at one of the concentrations indicated above was added to each cup containing the tissue plus the spores, and incubation was carried out at the respective temperatures and for the respective lengths of time. After such incubation for either 4, 24 or 44 hours, the solutions were filtered to recover the spores, and these were incubated on TSA plates for 2 weeks at 32 to 33° C. The tissue samples were washed with a solution containing a surfactant to fully extract the spores from the tissue, and the resulting solutions were filtered. After washing with 0.1% peptone water, the filters were incubated on TSA plates for 2 weeks at 32 to 33° C. in order to determine the number of survivors on or in the tissue. The colonies were enumerated for both the EDC solutions and the tissue wash solutions, and the results (numbers of colony forming units) were added.

[3] = test system: Methylbacterium extorquens ATCC 43645 vegetative cells; test: Sterilization in cups at about 38° C. (Example 6); assay type: cell-based, Methylobacterium extorquens; details: 25 mM EDC, 20% isopropanol, inoculum Log 10 6.94
Procedure: In view of the foregoing verification, it was decided to test the effectiveness of the sterilization process against other bacteria using sterile cups. Added to each of the cups is 20 ml of 10 mM HEPES, 0.85%, Nacl, 20% isopropanol, pH 6.5, containing 25 mM EDC without any coupling enhancer, before the cups are placed in a incubator at about 38° C. When the solution temperature reached about 38° C., approximately 10^5-10^6 organisms were inoculated into the solution. The tests were carried out in triplicate. The following four isolated were tested in the form of sporous suspensions: Clostridium sporogenes ATCC 3584, Bacillus pumilus ATCC 27142, Chaetonium globosom ATCC 6205, and Microacus cinereus ATCC 16594. The following three isolates were tested as vegetative cells: Mycobacterium chelonae ATCC 35752, Methylbacterium extorquens ATCC 43645 and Trichosporon aquatile ATCC 22310. The inoculated systems were allowed to incubate for 1 hour, for 5 hours or for 24 hours, and the solutions were then filtered through a 0.45 micron filter. After rinsing, the filter was placed on a TSA plate as described in Example 1. Negative and positive controls indicate that the tests were valid. The results are set forth in Table D which follows wherein the number of CFUs in the inoculum is expressed as its log to the base 10, e.g. 3.4×10^5=5.5: […]

[4] = 5 mM EDC, 25° C., 4 hrs, about 2.5×10^5 spores on tissue
[5] = 5 mM EDC, 25° C., 44 hrs, about 2.5×10^5 spores on tissue
[6] = 5 mM EDC, 32.5° C., 24 hrs, about 2.5×10^5 spores on tissue
[7] = 5 mM EDC, 40° C., 4 hrs, about 2.5×10^5 spores on tissue
[8] = 12.5 mM EDC, 25° C., 24 hrs, about 2.5×10^5 spores on tissue
[9] = 12.5 mM EDC, 32.5° C., 4 hrs, about 2.5×10^5 spores on tissue
[10] = 12.5 mM EDC, 32.5° C., 24 hrs, about 2.5×10^5 spores on tissue (conditions 8-11, replicates), hydrochloride
[11] = 12.5 mM EDC, 32.5° C., 44 hrs, about 2.5×10^5 spores on tissue
[12] = 12.5 mM EDC, 40° C., 24 hrs, about 2.5×10^5 spores on tissue
[13] = 20 mM EDC, 25° C., 4 hrs, about 2.5×10^5 spores on tissue
[14] = 20 mM EDC, 25° C., 44 hrs, about 2.5×10^5 spores on tissue
[15] = 20 mM EDC, 32.5° C., 24 hrs, about 2.5×10^5 spores on tissue

In the case of `CCN=C=NCCCN(C)C.Cl` [EDC, 1-ethyl-3(3-dimethylaminopropyl)carbodiimide hydrochloride], the “growth on TSA plates” value ([1]; with valves, treatment 48 hours, incubation 1 Day) is reported as “−”, the “growth on TSA plates” value ([1]; with valves, treatment 48 hours, incubation 7 Days) is reported as “−” and the “growth on TSA plates” value ([1]; with valves, treatment 72 hours, incubation 1 Day) is reported as “−”. The “growth on TSA plates” value ([1]; with valves, treatment 72 hours, incubation 7 Days) was “−”, the “growth on TSA plates” value ([1]; without valves, treatment 24 hours, incubation 1 Day) was “−” and the “growth on TSA plates” value ([1]; without valves, treatment 24 hours, incubation 7 Days) was “−”. The “growth on TSA plates” value ([1]; without valves, treatment 48 hours, incubation 1 Day) was “−”, the “growth on TSA plates” value ([1]; without valves, treatment 48 hours, incubation 7 Days) was “−” and the “growth on TSA plates” value ([1]; without valves, treatment 72 hours, incubation 1 Day) was “−”. For the same molecule, the “growth on TSA plates” value ([1]; without valves, treatment 72 hours, incubation 7 Days) was “−”, the “LOG REDUCTION” value [2, 4] was “.27” and the SURVIVORS [2, 4] was 135000 CFUs. For the same molecule, the “LOG REDUCTION” value [2, 5] was 2.3, the SURVIVORS [2, 5] was 1300 CFUs and the “LOG REDUCTION” value [2, 6] was 3.0. For the same molecule, the SURVIVORS [2, 6] was 208 CFUs, the “LOG REDUCTION” value [2, 7] was 2.4 and the SURVIVORS [2, 7] was 1100 CFUs. The SURVIVORS ([2]; 5 mM EDC, 40° C., 44 hrs, about 2.5×10^5 spores on tissue) was 21 CFUs, the “LOG REDUCTION” value [2, 8] was 3.0 and the SURVIVORS [2, 8] was 225 CFUs. For the same molecule, the “LOG REDUCTION” value [2, 9] was 1.6, the SURVIVORS [2, 9] was 5900 CFUs and the “LOG REDUCTION” value [2, 10] was 3.6 and 3.9 and 3.4 and 3.7. The SURVIVORS [2, 10] was 57 CFUs and 34 CFUs and 94 CFUs and 44 CFUs, the “LOG REDUCTION” value [2, 11] was 3.9 and the SURVIVORS [2, 11] was 33 CFUs. For the same molecule, the “LOG REDUCTION” value [2, 12] was 4.0, the SURVIVORS [2, 12] was 27 CFUs and the “LOG REDUCTION” value [2, 13] was 0.9. The SURVIVORS [2, 13] was 31400 CFUs, the “LOG REDUCTION” value [2, 14] was 4.2 and the SURVIVORS [2, 14] was 16 CFUs. For the same molecule, the “LOG REDUCTION” value [2, 15] was 4.0, the SURVIVORS [2, 15] was 24 CFUs and the SURVIVORS ([2]; 20 mM EDC, 40° C., 4 hrs, about 2.5×10^5 spores on tissue) was 5 CFUs. For the same molecule, the “LOG REDUCTION” value ([2]; 20 mM EDC, 40° C., 44 hrs, about 2.5×10^5 spores on tissue) was 5.4, the “Log REDUCTION” value ([3]; 1 Hour) was 6.94 and the “Log REDUCTION” value ([3]; 5 Hours) was 6.94.
